Measurements from patent US11292770B2, “Pyridazinone herbicides” (FMC Corporation, priority 2017, dated 2022).

system: ryegrass, Italian (Italian ryegrass, Lolium multiflorum); experiment: Test A preemergence, ryegrass, Italian; assay type: in vivo; settings: 31 g ai/ha, 0 to 100 scale
Description: (§1) Seeds of plant species selected from barnyardgrass (Echinochloa crus-galli), kochia (Kochia scoparia), ragweed (common ragweed, Ambrosia elation), ryegrass, Italian (Italian ryegrass, Lolium multiflorum), foxtail, green (green foxtail, Setaria viridis), and pigweed (Amaranthus retroflexus) were planted into a blend of loam soil and sand and treated preemergence with a directed soil spray using test chemicals formulated in a non-phytotoxic solvent mixture which included a surfactant. At the same time, plants selected from these weed species and also wheat (Triticum aestivum), corn (Zea mays), blackgrass (Alopecurus myosuroides), and galium (catchweed bedstraw, Galium aparine) were planted in pots containing the same blend of loam soil and sand and treated with postemergence applications of test chemicals formulated in the same manner Plants ranged in height from 2 to 10 cm and were in the one- to two-leaf stage for the postemergence treatment. Treated plants and untreated controls were maintained in a greenhouse for approximately 10 d, after which time all treated plants were compared to untreated controls and visually evaluated for injury. Plant response ratings, summarized in Table A, are based on a 0 to 100 scale where 0 is no effect and 100 is complete control. A dash (—) response means no test result.

Row | SMILES | Plant response rating, Ryegrass, Italian
1 | Cn1nc(Cl)c(O)c(-c2c3ccccc3c(Br)c3ccccc23)c1=O [Compound 3, 4-(10-bromo-9-anthracenyl)-6-chloro-5-hydroxy-2-methyl-3(2H)-pyridazinone] | 20

same assay, conditions: 125 g ai/ha, 0 to 100 scale

Row | SMILES | Plant response rating, Ryegrass, Italian
2 | Cn1nc(Cl)c(O)c(-c2c3ccccc3c(Br)c3ccccc23)c1=O [Compound 3, 4-(10-bromo-9-anthracenyl)-6-chloro-5-hydroxy-2-methyl-3(2H)-pyridazinone] | 80

system: kochia (Kochia scoparia); experiment: Test A preemergence, kochia; assay type: in vivo; settings: 31 g ai/ha, 0 to 100 scale
Description: as §1

Row | SMILES | Plant response rating, Kochia
3 | Cn1nc(Cl)c(O)c(-c2c3ccccc3c(Br)c3ccccc23)c1=O [Compound 3, 4-(10-bromo-9-anthracenyl)-6-chloro-5-hydroxy-2-methyl-3(2H)-pyridazinone] | 0

same assay, conditions: 125 g ai/ha, 0 to 100 scale

Row | SMILES | Plant response rating, Kochia
4 | Cn1nc(Cl)c(O)c(-c2c3ccccc3c(Br)c3ccccc23)c1=O [Compound 3, 4-(10-bromo-9-anthracenyl)-6-chloro-5-hydroxy-2-methyl-3(2H)-pyridazinone] | 50

system: ragweed (common ragweed, Ambrosia elation); experiment: Test A postemergence, ragweed; assay type: in vivo; settings: 31 g ai/ha, 0 to 100 scale
Description: as §1

Row | SMILES | Plant response rating, Ragweed
5 | Cn1nc(Cl)c(O)c(-c2c3ccccc3c(Br)c3ccccc23)c1=O [Compound 3, 4-(10-bromo-9-anthracenyl)-6-chloro-5-hydroxy-2-methyl-3(2H)-pyridazinone] | 80

same assay, conditions: 125 g ai/ha, 0 to 100 scale

Row | SMILES | Plant response rating, Ragweed
6 | Cn1nc(Cl)c(O)c(-c2c3ccccc3c(Br)c3ccccc23)c1=O [Compound 3, 4-(10-bromo-9-anthracenyl)-6-chloro-5-hydroxy-2-methyl-3(2H)-pyridazinone] | 90

system: blackgrass (Alopecurus myosuroides); experiment: Test A postemergence, blackgrass; assay type: in vivo; settings: 31 g ai/ha, 0 to 100 scale
Description: as §1

Row | SMILES | Plant response rating, Blackgrass
7 | Cn1nc(Cl)c(O)c(-c2c3ccccc3c(Br)c3ccccc23)c1=O [Compound 3, 4-(10-bromo-9-anthracenyl)-6-chloro-5-hydroxy-2-methyl-3(2H)-pyridazinone] | 10

same assay, conditions: 125 g ai/ha, 0 to 100 scale

Row | SMILES | Plant response rating, Blackgrass
8 | Cn1nc(Cl)c(O)c(-c2c3ccccc3c(Br)c3ccccc23)c1=O [Compound 3, 4-(10-bromo-9-anthracenyl)-6-chloro-5-hydroxy-2-methyl-3(2H)-pyridazinone] | 70

system: pigweed (Amaranthus retroflexus); experiment: Test A preemergence, pigweed; assay type: in vivo; settings: 31 g ai/ha, 0 to 100 scale
Description: as §1

Row | SMILES | Plant response rating, Pigweed
9 | Cn1nc(Cl)c(O)c(-c2c3ccccc3c(Br)c3ccccc23)c1=O [Compound 3, 4-(10-bromo-9-anthracenyl)-6-chloro-5-hydroxy-2-methyl-3(2H)-pyridazinone] | 100

same assay, conditions: 125 g ai/ha, 0 to 100 scale

Row | SMILES | Plant response rating, Pigweed
10 | Cn1nc(Cl)c(O)c(-c2c3ccccc3c(Br)c3ccccc23)c1=O [Compound 3, 4-(10-bromo-9-anthracenyl)-6-chloro-5-hydroxy-2-methyl-3(2H)-pyridazinone] | 100

system: barnyardgrass (Echinochloa crus-galli); experiment: Test A postemergence, barnyardgrass; assay type: in vivo; settings: 31 g ai/ha, 0 to 100 scale
Description: as §1

Row | SMILES | Plant response rating, Barnyardgrass
11 | Cn1nc(Cl)c(O)c(-c2c3ccccc3c(Br)c3ccccc23)c1=O [Compound 3, 4-(10-bromo-9-anthracenyl)-6-chloro-5-hydroxy-2-methyl-3(2H)-pyridazinone] | 20

same assay, conditions: 125 g ai/ha, 0 to 100 scale, 0 no effect, 100 complete control

Row | SMILES | Plant response rating, Barnyardgrass
12 | Cn1nc(Cl)c(O)c(-c2c3ccccc3c(Br)c3ccccc23)c1=O [Compound 3, 4-(10-bromo-9-anthracenyl)-6-chloro-5-hydroxy-2-methyl-3(2H)-pyridazinone] | 60

system: ragweed (common ragweed, Ambrosia elation); experiment: Test A preemergence, ragweed; assay type: in vivo; settings: 31 g ai/ha, 0 to 100 scale
Description: as §1

Row | SMILES | Plant response rating, Ragweed
13 | Cn1nc(Cl)c(O)c(-c2c3ccccc3c(Br)c3ccccc23)c1=O [Compound 3, 4-(10-bromo-9-anthracenyl)-6-chloro-5-hydroxy-2-methyl-3(2H)-pyridazinone] | 20

same assay, conditions: 125 g ai/ha, 0 to 100 scale

Row | SMILES | Plant response rating, Ragweed
14 | Cn1nc(Cl)c(O)c(-c2c3ccccc3c(Br)c3ccccc23)c1=O [Compound 3, 4-(10-bromo-9-anthracenyl)-6-chloro-5-hydroxy-2-methyl-3(2H)-pyridazinone] | 100

system: corn (Zea mays); experiment: Test A postemergence, corn; assay type: in vivo; settings: 31 g ai/ha, 0 to 100 scale
Description: as §1

Row | SMILES | Plant response rating, Corn
15 | Cn1nc(Cl)c(O)c(-c2c3ccccc3c(Br)c3ccccc23)c1=O [Compound 3, 4-(10-bromo-9-anthracenyl)-6-chloro-5-hydroxy-2-methyl-3(2H)-pyridazinone] | 0

same assay, conditions: 125 g ai/ha, 0 to 100 scale

Row | SMILES | Plant response rating, Corn
16 | Cn1nc(Cl)c(O)c(-c2c3ccccc3c(Br)c3ccccc23)c1=O [Compound 3, 4-(10-bromo-9-anthracenyl)-6-chloro-5-hydroxy-2-methyl-3(2H)-pyridazinone] | 10

system: foxtail, green (green foxtail, Setaria viridis); experiment: Test A postemergence, foxtail, green; assay type: in vivo; settings: 31 g ai/ha, 0 to 100 scale
Description: as §1

Row | SMILES | Plant response rating, Foxtail, Green
17 | Cn1nc(Cl)c(O)c(-c2c3ccccc3c(Br)c3ccccc23)c1=O [Compound 3, 4-(10-bromo-9-anthracenyl)-6-chloro-5-hydroxy-2-methyl-3(2H)-pyridazinone] | 40

same assay, conditions: 125 g ai/ha, 0 to 100 scale

Row | SMILES | Plant response rating, Foxtail, Green
18 | Cn1nc(Cl)c(O)c(-c2c3ccccc3c(Br)c3ccccc23)c1=O [Compound 3, 4-(10-bromo-9-anthracenyl)-6-chloro-5-hydroxy-2-methyl-3(2H)-pyridazinone] | 90

system: barnyardgrass (Echinochloa crus-galli); experiment: Test A preemergence, barnyardgrass; assay type: in vivo; settings: 31 g ai/ha, 0 to 100 scale
Description: as §1

Row | SMILES | Plant response rating, Barnyardgrass
19 | Cn1nc(Cl)c(O)c(-c2c3ccccc3c(Br)c3ccccc23)c1=O [Compound 3, 4-(10-bromo-9-anthracenyl)-6-chloro-5-hydroxy-2-methyl-3(2H)-pyridazinone] | 0

same assay, conditions: 125 g ai/ha, 0 to 100 scale

Row | SMILES | Plant response rating, Barnyardgrass
20 | Cn1nc(Cl)c(O)c(-c2c3ccccc3c(Br)c3ccccc23)c1=O [Compound 3, 4-(10-bromo-9-anthracenyl)-6-chloro-5-hydroxy-2-methyl-3(2H)-pyridazinone] | 50

system: pigweed (Amaranthus retroflexus); experiment: Test A postemergence, pigweed; assay type: in vivo; settings: 31 g ai/ha, 0 to 100 scale
Description: as §1

Row | SMILES | Plant response rating, Pigweed
21 | Cn1nc(Cl)c(O)c(-c2c3ccccc3c(Br)c3ccccc23)c1=O [Compound 3, 4-(10-bromo-9-anthracenyl)-6-chloro-5-hydroxy-2-methyl-3(2H)-pyridazinone] | 100

same assay, conditions: 125 g ai/ha, 0 to 100 scale

Row | SMILES | Plant response rating, Pigweed
22 | Cn1nc(Cl)c(O)c(-c2c3ccccc3c(Br)c3ccccc23)c1=O [Compound 3, 4-(10-bromo-9-anthracenyl)-6-chloro-5-hydroxy-2-methyl-3(2H)-pyridazinone] | 100

system: galium (catchweed bedstraw, Galium aparine); experiment: Test A postemergence, galium; assay type: in vivo; settings: 31 g ai/ha, 0 to 100 scale
Description: as §1

Row | SMILES | Plant response rating, Galium
23 | Cn1nc(Cl)c(O)c(-c2c3ccccc3c(Br)c3ccccc23)c1=O [Compound 3, 4-(10-bromo-9-anthracenyl)-6-chloro-5-hydroxy-2-methyl-3(2H)-pyridazinone] | 90

same assay, conditions: 125 g ai/ha, 0 to 100 scale

Row | SMILES | Plant response rating, Galium
24 | Cn1nc(Cl)c(O)c(-c2c3ccccc3c(Br)c3ccccc23)c1=O [Compound 3, 4-(10-bromo-9-anthracenyl)-6-chloro-5-hydroxy-2-methyl-3(2H)-pyridazinone] | 90

system: kochia (Kochia scoparia); experiment: Test A postemergence, kochia; assay type: in vivo; settings: 31 g ai/ha, 0 to 100 scale
Description: as §1

Row | SMILES | Plant response rating, Kochia
25 | Cn1nc(Cl)c(O)c(-c2c3ccccc3c(Br)c3ccccc23)c1=O [Compound 3, 4-(10-bromo-9-anthracenyl)-6-chloro-5-hydroxy-2-methyl-3(2H)-pyridazinone] | 10

same assay, conditions: 125 g ai/ha, 0 to 100 scale

Row | SMILES | Plant response rating, Kochia
26 | Cn1nc(Cl)c(O)c(-c2c3ccccc3c(Br)c3ccccc23)c1=O [Compound 3, 4-(10-bromo-9-anthracenyl)-6-chloro-5-hydroxy-2-methyl-3(2H)-pyridazinone] | 50

system: foxtail, green (green foxtail, Setaria viridis); experiment: Test A preemergence, foxtail, green; assay type: in vivo; settings: 31 g ai/ha, 0 to 100 scale
Description: as §1

Row | SMILES | Plant response rating, Foxtail, Green
27 | Cn1nc(Cl)c(O)c(-c2c3ccccc3c(Br)c3ccccc23)c1=O [Compound 3, 4-(10-bromo-9-anthracenyl)-6-chloro-5-hydroxy-2-methyl-3(2H)-pyridazinone] | 10

same assay, conditions: 125 g ai/ha, 0 to 100 scale

Row | SMILES | Plant response rating, Foxtail, Green
28 | Cn1nc(Cl)c(O)c(-c2c3ccccc3c(Br)c3ccccc23)c1=O [Compound 3, 4-(10-bromo-9-anthracenyl)-6-chloro-5-hydroxy-2-methyl-3(2H)-pyridazinone] | 80

system: wheat (Triticum aestivum); experiment: Test A postemergence, wheat; assay type: in vivo; settings: 31 g ai/ha, 0 to 100 scale
Description: as §1

Row | SMILES | Plant response rating, Wheat
29 | Cn1nc(Cl)c(O)c(-c2c3ccccc3c(Br)c3ccccc23)c1=O [Compound 3, 4-(10-bromo-9-anthracenyl)-6-chloro-5-hydroxy-2-methyl-3(2H)-pyridazinone] | 20

same assay, conditions: 125 g ai/ha, 0 to 100 scale

Row | SMILES | Plant response rating, Wheat
30 | Cn1nc(Cl)c(O)c(-c2c3ccccc3c(Br)c3ccccc23)c1=O [Compound 3, 4-(10-bromo-9-anthracenyl)-6-chloro-5-hydroxy-2-methyl-3(2H)-pyridazinone] | 60

system: ryegrass, Italian (Italian ryegrass, Lolium multiflorum); experiment: Test A postemergence, ryegrass, Italian; assay type: in vivo; settings: 31 g ai/ha, 0 to 100 scale
Description: as §1

Row | SMILES | Plant response rating, Ryegrass, Italian
31 | Cn1nc(Cl)c(O)c(-c2c3ccccc3c(Br)c3ccccc23)c1=O [Compound 3, 4-(10-bromo-9-anthracenyl)-6-chloro-5-hydroxy-2-methyl-3(2H)-pyridazinone] | 40

same assay, conditions: 125 g ai/ha, 0 to 100 scale

Row | SMILES | Plant response rating, Ryegrass, Italian
32 | Cn1nc(Cl)c(O)c(-c2c3ccccc3c(Br)c3ccccc23)c1=O [Compound 3, 4-(10-bromo-9-anthracenyl)-6-chloro-5-hydroxy-2-methyl-3(2H)-pyridazinone] | 50
